The subject of data set [1] is COLO205 colon adenocarcinoma cells (B-Raf V600E). The experiment in a line: COLO205 cell growth inhibition (ATPlite). Conditions: Homo sapiens, COLO 205, 72 h; COLO205, 3 days incubation. Type of data set: cell-based. In short, it runs like this: (§1)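 Cells plated overnight, then exposed 3 days at 37° C to 8-point 1:3 compound dilutions topping at 10 μM final. Viability read as ATPlite luminescence, proportional to cell number; IC50 from luminescence versus concentration.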
In general terms: Cellular ATP, detected with luciferase, serves as a proxy for viable cell number.

Another data set deals with T1, CYP1A2 (Homo sapiens, UniProt P05177).
T1 sequence (P05177 1-516): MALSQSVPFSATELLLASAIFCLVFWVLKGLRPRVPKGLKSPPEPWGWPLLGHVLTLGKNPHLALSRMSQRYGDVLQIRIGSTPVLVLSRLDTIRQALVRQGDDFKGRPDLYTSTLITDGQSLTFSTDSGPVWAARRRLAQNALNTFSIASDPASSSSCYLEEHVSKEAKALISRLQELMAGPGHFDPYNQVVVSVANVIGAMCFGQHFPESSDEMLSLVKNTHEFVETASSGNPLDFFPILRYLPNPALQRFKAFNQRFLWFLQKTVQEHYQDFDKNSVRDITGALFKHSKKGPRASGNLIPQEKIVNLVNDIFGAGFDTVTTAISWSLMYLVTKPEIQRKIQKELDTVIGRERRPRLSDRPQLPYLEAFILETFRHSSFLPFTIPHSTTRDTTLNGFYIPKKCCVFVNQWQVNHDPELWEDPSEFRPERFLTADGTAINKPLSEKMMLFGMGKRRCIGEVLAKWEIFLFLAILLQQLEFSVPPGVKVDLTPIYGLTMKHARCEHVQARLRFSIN
The experiment in a line: CYP1A2 inhibition (fluorescent substrate). Type of data set: in vitro ADME. The settings on record: CYP1A2, CEC substrate; read-out: Cyp IC50 1A2. How it is done:
CYP (Cytochrome P450) enzymes are the major drug metabolizing enzymes present in the liver. The inhibition of CYP enzyme activity (IC50) for each of CYP1A2, CYP2C19, CYP2C9, CYP2D6, CYP3A4(BFC) and CYP3A4(BQ) is determined for compounds, where inhibition of metabolism of a known substrate leads to a decrease in the fluorescence of the metabolized product. The fluorescence of the product is monitored as a function of compound concentration.
Compounds are dissolved in dimethyl sulfoxide to a concentration of 100 mM. These are diluted 1 μL into 82 μL of acetonitrile. […] These are then serially diluted 1:1 (160 μL to 160 μL co-factor mix) for a total of 10 points. A 10 μL aliquot of this final mixture is dispensed into 384 well assay plates and incubated for 10 minutes at 37° C. […] Assay plates are incubated at 37° C. […] The signal versus compound concentration is used to determine the IC50. The enzymes and substrates for this assay are obtained from BD Biosciences.

For data set [2], the system named is SW620 colon adenocarcinoma cells (wild-type B-RAF). Put plainly: SW620 cell growth inhibition (ATPlite). Type of data set: cell-based. Conditions: Homo sapiens, SW-620, 72 h; SW620, 3 days incubation. In short, it runs like this:
as §1

This note sets out measurements from patent US8198273B2, “Compounds and methods for kinase modulation, and indications therefor” (Plexxikon Inc., priority 2009, dated 2012).

Regarding `O=C(c1c(F)ccc(NS(=O)(=O)c2c(F)cccc2F)c1F)c1c[nH]c2ncc(Cl)cc12` [P-2003, N-[3-(5-Chloro-1H-pyrrolo[2,3-b]pyridine-3-carbonyl)-2,4-difluoro-phenyl]-2,6-difluoro-benzenesulfonamide], the results for the IC50 (in data set [1]; on CYP1A2) were less than 5 µM and more than 10 µM, respectively.

With `COc1ccnc2[nH]cc(C(=O)c3c(F)ccc(NS(=O)(=O)c4ccccc4F)c3F)c12` [P-2021, N-[2,4-Difluoro-3-(4-methoxy-1H-pyrrolo[2,3-b]pyridine-3-carbonyl)-phenyl]-2-fluoro-benzenesulfonamide], the figures for the IC50 (in data set [1]; in data set [2]; on CYP1A2) were less than 5 µM, more than 10 µM and more than 10 µM, respectively.

As to `COc1ccnc2[nH]cc(C(=O)c3c(F)ccc(NS(=O)(=O)c4cccc(F)c4)c3F)c12` [P-2023, N-[2,4-Difluoro-3-(4-methoxy-1H-pyrrolo[2,3-b]pyridine-3-carbonyl)-phenyl]-3-fluoro-benzenesulfonamide], the figures for the IC50 (in data set [1]; at CYP1A2) were less than 5 µM and more than 10 µM, respectively.

`Cc1cnc2[nH]cc(C(=O)c3c(F)ccc(NS(=O)(=O)c4c(F)cccc4F)c3F)c2c1` [P-2024, N-[2,4-Difluoro-3-(5-methyl-1H-pyrrolo[2,3-b]pyridine-3-carbonyl)-phenyl]-2,6-difluoro-benzenesulfonamide]: the IC50 is less than 5 µM in data set [1] and more than 10 µM at CYP1A2.

Take `COc1ncc(-c2cnc3[nH]cc(C(=O)c4c(F)ccc(NS(=O)(=O)c5ccccc5F)c4F)c3c2)cn1` [P-2041, N-{2,4-Difluoro-3-[5-(2-methoxy-pyrimidin-5-yl)-1H-pyrrolo[2,3-b]pyridine-3-carbonyl]-phenyl}-2-fluoro-benzenesulfonamide]: the results for the IC50 (in data set [1]; in data set [2]; on CYP1A2) were less than 1 µM, more than 10 µM and more than 10 µM, respectively.

Consider `COc1ncc(-c2cnc3[nH]cc(C(=O)c4c(F)ccc(NS(=O)(=O)c5cc(F)ccc5F)c4F)c3c2)cn1` [P-2042, N-{2,4-Difluoro-3-[5-(2-methoxy-pyrimidin-5-yl)-1H-pyrrolo[2,3-b]pyridine-3-carbonyl]-phenyl}-2,5-difluoro-benzenesulfonamide], for which the IC50 in data set [1] is less than 0.1 µM; in data set [2], more than 10 µM; at CYP1A2 it was more than 10 µM.

For `COc1ncc(-c2cnc3[nH]cc(C(=O)c4c(F)ccc(NS(=O)(=O)c5c(F)cccc5F)c4F)c3c2)cn1` [P-2043, N-{2,4-Difluoro-3-[5-(2-methoxy-pyrimidin-5-yl)-1H-pyrrolo[2,3-b]pyridine-3-carbonyl]-phenyl}-2,6-difluoro-benzenesulfonamide], the IC50 in data set [1] is less than 1 µM; in data set [2], more than 10 µM; on CYP1A2, more than 10 µM.

Turning to `COc1ncc(-c2cnc3[nH]cc(C(=O)c4c(F)ccc(NS(=O)(=O)c5cccc(F)c5)c4F)c3c2)cn1` [P-2045, N-{2,4-Difluoro-3-[5-(2-methoxy-pyrimidin-5-yl)-1H-pyrrolo[2,3-b]pyridine-3-carbonyl]-phenyl}-3-fluoro-benzenesulfonamide], the results for the IC50 (in data set [1]; in data set [2]; on CYP1A2) were less than 1 µM, more than 10 µM and more than 10 µM, respectively.

For the compound `N#Cc1cnc2[nH]cc(C(=O)c3cccc(NS(=O)(=O)c4c(F)cccc4F)c3F)c2c1` [P-2054, N-[3-(5-Cyano-1H-pyrrolo[2,3-b]pyridine-3-carbonyl)-2-fluoro-phenyl]-2,6-difluoro-benzenesulfonamide], the IC50 (in data set [2]; at CYP1A2) was more than 10 µM in each case.

As to `Cc1cnc2[nH]cc(C(=O)c3c(F)ccc(NS(=O)(=O)c4cccnc4)c3F)c2c1` [P-2069, Pyridine-3-sulfonic acid [2,4-difluoro-3-(5-methyl-1H-pyrrolo[2,3-b]pyridine-3-carbonyl)-phenyl]-amide], the values for the IC50 (in data set [1]; on CYP1A2) were less than 1 µM and more than 10 µM, respectively.

Take `CCCS(=O)(=O)Nc1ccc(F)c(C(=O)c2c[nH]c3ncc(-c4ccc(C(=O)NCC)nc4)cc23)c1F` [P-2151, 5-{3-[2,6-Difluoro-3-(propane-1-sulfonylamino)-benzoyl]-1H-pyrrolo[2,3-b]pyridin-5-yl}-pyridine-2-carboxylic acid ethylamide]: the 50% inhibitory concentration (IC50) is less than 1 µM in data set [1] and more than 10 µM on CYP1A2.

As to `CCCS(=O)(=O)Nc1ccc(F)c(C(=O)c2c[nH]c3ncc(-c4ccc(C(=O)NC)nc4)cc23)c1F` [P-2180, 5-{3-[2,6-Difluoro-3-(propane-1-sulfonylamino)-benzoyl]-1H-pyrrolo[2,3-b]pyridin-5-yl}-pyridine-2-carboxylic acid methylamide], the IC50 on CYP1A2 was more than 10 µM.

Consider `CCCS(=O)(=O)Nc1ccc(F)c(C(=O)c2c[nH]c3ncc(-c4ccc(C(=O)NC5CC5)nc4)cc23)c1F` [P-2181, 5-{3-[2,6-Difluoro-3-(propane-1-sulfonylamino)-benzoyl]-1H-pyrrolo[2,3-b]pyridin-5-yl}-pyridine-2-carboxylic acid cyclopropylamide], for which the IC50 at CYP1A2 was more than 10 µM.

Take `CCCS(=O)(=O)Nc1ccc(F)c(C(=O)c2c[nH]c3ncc(-c4ccc(OC)nc4OC)cc23)c1F` [P-2184, Propane-1-sulfonic acid {3-[5-(2,6-dimethoxy-pyridin-3-yl)-1H-pyrrolo[2,3-b]pyridine-3-carbonyl]-2,4-difluoro-phenyl}-amide]: the IC50 at CYP1A2 is more than 10 µM.

Take `CCCS(=O)(=O)Nc1ccc(F)c(C(=O)c2c[nH]c3ncc(-c4ccc(SC)nc4)cc23)c1F` [P-2187, Propane-1-sulfonic acid {2,4-difluoro-3-[5-(6-methylsulfanyl-pyridin-3-yl)-1H-pyrrolo[2,3-b]pyridine-3-carbonyl]-phenyl}-amide]: the IC50 in data set [1] is less than 1 µM; in data set [2], more than 10 µM; at CYP1A2, more than 10 µM.

Regarding `CCCS(=O)(=O)Nc1ccc(F)c(C(=O)c2c[nH]c3ncc(-c4cncc(S(C)(=O)=O)c4)cc23)c1F` [P-2188, Propane-1-sulfonic acid {2,4-difluoro-3-[5-(5-methanesulfonyl-pyridin-3-yl)-1H-pyrrolo[2,3-b]pyridine-3-carbonyl]-phenyl}-amide], on CYP1A2, the IC50 was more than 10 µM.

Consider `CCCS(=O)(=O)Nc1ccc(F)c(C(=O)c2c[nH]c3ncc(-c4ccnc(F)c4)cc23)c1F` [P-2192, Propane-1-sulfonic acid {2,4-difluoro-3-[5-(2-fluoro-pyridin-4-yl)-1H-pyrrolo[2,3-b]pyridine-3-carbonyl]-phenyl}-amide], for which the IC50 (in data set [2]; at CYP1A2) was more than 10 µM throughout.

Take `CCCS(=O)(=O)Nc1ccc(F)c(C(=O)c2c[nH]c3ncc(-c4ccc(S(N)(=O)=O)cc4)cc23)c1F` [P-2194, 4-{3-[2,6-Difluoro-3-(propane-1-sulfonylamino)-benzoyl]-1H-pyrrolo[2,3-b]pyridin-5-yl}-benzenesulfonamide]: the IC50 on CYP1A2 was more than 10 µM.

Turning to `CCCS(=O)(=O)Nc1ccc(F)c(C(=O)c2c[nH]c3ncc(-c4cnc(N5CCOCC5)nc4)cc23)c1F` [P-2197, Propane-1-sulfonic acid {2,4-difluoro-3-[5-(2-morpholin-4-yl-pyrimidin-5-yl)-1H-pyrrolo[2,3-b]pyridine-3-carbonyl]-phenyl}-amide], at CYP1A2, the IC50 is more than 10 µM.

`CCCS(=O)(=O)Nc1ccc(F)c(C(=O)c2c[nH]c3ncc(-c4cnc(OC)nc4OC)cc23)c1F` [P-2199, Propane-1-sulfonic acid {3-[5-(2,4-dimethoxy-pyrimidin-5-yl)-1H-pyrrolo[2,3-b]pyridine-3-carbonyl]-2,4-difluoro-phenyl}-amide]: the IC50 on CYP1A2 was more than 10 µM.

For `CCCS(=O)(=O)Nc1ccc(F)c(C(=O)c2c[nH]c3ncc(-c4cccc(S(C)(=O)=O)c4)cc23)c1F` [P-2228, Propane-1-sulfonic acid {2,4-difluoro-3-[5-(3-methanesulfonyl-phenyl)-1H-pyrrolo[2,3-b]pyridine-3-carbonyl]-phenyl}-amide], the IC50 (in data set [2]; at CYP1A2) was more than 10 µM each time.

`CCCS(=O)(=O)Nc1cccc(C(=O)c2c[nH]c3ncc(-c4cnc(N(C)C)nc4)cc23)c1F` [P-2408, Propane-1-sulfonic acid {3-[5-(2-dimethylamino-pyrimidin-5-yl)-1H-pyrrolo[2,3-b]pyridine-3-carbonyl]-2-fluoro-phenyl}-amide]: the IC50 in data set [1] is less than 1 µM; on CYP1A2, more than 10 µM.

One may read the IC50 as the concentration needed to halve the response being measured.
